According to ChEMBL document CHEMBL1141758, “Gesashidine A, a beta-carboline alkaloid with an imidazole ring from a Thorectidae sponge” (J Nat Prod, 2005):
The source made the active and inactive calls. The rule behind the calls is not given here.

What was measured:
Micrococcus luteus = assay: Antimicrobial activity against Micrococcus luteus; assay type: functional
KB = assay: Cytotoxicity against human KB cells; assay type: functional, cell-based
L1210 = assay: Cytotoxicity against mouse L1210 cells; assay type: functional, cell-based

MIC (Micrococcus luteus) [µg/mL] | SMILES | Activity (Micrococcus luteus) | IC50 (KB) [µg/mL] | IC50 (L1210) [µg/mL]
 | CSc1c(C(=O)c2nc(C(=O)[O-])cc3c2[nH]c2ccc(O)cc23)n(C)c[n+]1C | inactive |  | 
 | CSc1c(Cc2nc(C(=O)[O-])cc3c2[nH]c2ccc(O)cc23)n(C)c[n+]1C | inactive |  | 
16.6 | CSc1c(Cc2nccc3c2[nH]c2ccc(O)cc23)n(C)c[n+]1C [GESASHIDINE A] |  | > 10 | > 10
